Laboratory results from publication PMC10247784, “Physiological activation of human and mouse bitter taste receptors by bile acids” (Communications Biology, 2023).

Molecular target: T1, mouse Tas2r108 (Mus musculus, UniProt Q9JKT3)
T1 construct: expressed in transfected cells; host or cells: HEK293T-Gα16gust44
T1 sequence (Q9JKT3 1-297): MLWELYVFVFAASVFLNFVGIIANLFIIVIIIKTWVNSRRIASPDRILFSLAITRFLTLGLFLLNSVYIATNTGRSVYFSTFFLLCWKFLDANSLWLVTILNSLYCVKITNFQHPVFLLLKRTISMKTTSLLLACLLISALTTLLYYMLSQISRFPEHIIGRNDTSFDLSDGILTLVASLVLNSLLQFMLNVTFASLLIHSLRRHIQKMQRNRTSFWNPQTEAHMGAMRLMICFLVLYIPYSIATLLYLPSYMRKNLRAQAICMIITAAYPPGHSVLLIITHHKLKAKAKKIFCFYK
Assay: Calcium imaging assay (FLIPR), HEK293T-Gα16gust44 cells transfected with mouse Tas2r108
Assay type: cell-based
In short: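 HEK293T-Gα16gust44 cells transiently transfected with the bitter-taste receptor, loaded next day with Fluo-4-AM plus 2.5 mM probenecid, and challenged with bile acids on FLIPR Tetra. Signals mock-subtracted, expressed as ΔF/F vs buffer.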

## C[C@H](CCC(=O)NCCS(=O)(=O)O)[C@H]1CC[C@H]2[C@@H]3CC[C@@H]4C[C@H](O)CC[C@]4(C)[C@H]3CC[C@]12C [Taurolithocholic Acid, taurolithocholic acid]
Time 0 s
  RLU: 0 RLU
Time 2 s
  RLU: 0.6757 RLU
Time 4 s
  RLU: -5.736 RLU
Time 6 s
  RLU: 6.046 RLU
Time 8 s
  RLU: 39.2838 RLU
Time 12 s
  RLU: 8.803 RLU
Time 14 s
  RLU: 5.215 RLU
Time 16 s
  RLU: -9.6707 RLU
Time 18 s
  RLU: -10.699 RLU
Time 18.781 s
  RLU: 51.1832 RLU
Time 20.781 s
  RLU: 31.0896 RLU
Time 22.781 s
  RLU: 17.366 RLU
Time 24.781 s
  RLU: 13.0906 RLU
Time 26.781 s
  RLU: 51.6272 RLU
Time 28.781 s
  RLU: 63.3328 RLU
Time 30.781 s
  RLU: 109.429 RLU
Time 32.781 s
  RLU: 151.07 RLU
Time 34.781 s
  RLU: 184.905 RLU
Time 36.781 s
  RLU: 210.816 RLU
Time 38.781 s
  RLU: 242.967 RLU
Time 40.781 s
  RLU: 265.916 RLU
Time 42.781 s
  RLU: 261.677 RLU
Time 44.781 s
  RLU: 303.058 RLU
Time 46.781 s
  RLU: 324.099 RLU
Time 48.781 s
  RLU: 311.969 RLU
Time 50.781 s
  RLU: 342.074 RLU
Time 52.781 s
  RLU: 343.185 RLU
Time 54.781 s
  RLU: 378.711 RLU
Time 56.781 s
  RLU: 389.7 RLU
Time 58.781 s
  RLU: 401.227 RLU
Time 60.781 s
  RLU: 410.325 RLU
Time 62.781 s
  RLU: 416.305 RLU
Time 64.781 s
  RLU: 417.574 RLU
Time 66.781 s
  RLU: 434.462 RLU
Time 68.781 s
  RLU: 456.387 RLU
Time 70.781 s
  RLU: 443.293 RLU
Time 72.781 s
  RLU: 455.898 RLU
Time 74.781 s
  RLU: 461.633 RLU
Time 76.781 s
  RLU: 455.071 RLU
Time 78.781 s
  RLU: 466.188 RLU
Time 80.781 s
  RLU: 477.183 RLU
Time 82.781 s
  RLU: 506.736 RLU
Time 84.781 s
  RLU: 503.228 RLU
Time 86.781 s
  RLU: 489.189 RLU
Time 88.781 s
  RLU: 473.872 RLU
Time 90.781 s
  RLU: 497.168 RLU
Time 92.781 s
  RLU: 472.229 RLU
Time 94.781 s
  RLU: 481.838 RLU
Time 96.781 s
  RLU: 467.082 RLU
Time 98.781 s
  RLU: 510.678 RLU
Time 100.781 s
  RLU: 498.898 RLU
Time 102.781 s
  RLU: 493.381 RLU
Time 104.781 s
  RLU: 508.478 RLU
Time 106.781 s
  RLU: 488.526 RLU
Time 108.781 s
  RLU: 487.641 RLU
Time 110.781 s
  RLU: 528.304 RLU
Time 112.781 s
  RLU: 500.584 RLU
Time 114.781 s
  RLU: 484.964 RLU
Time 116.781 s
  RLU: 486.198 RLU
Time 118.781 s
  RLU: 494.318 RLU
Time 120.781 s
  RLU: 504.713 RLU
Time 122.781 s
  RLU: 501.616 RLU
Time 124.781 s
  RLU: 482.612 RLU
Time 126.781 s
  RLU: 503.591 RLU
Time 128.781 s
  RLU: 486.957 RLU
Time 130.781 s
  RLU: 500.459 RLU
Time 132.781 s
  RLU: 472.597 RLU
Time 134.781 s
  RLU: 498.526 RLU
Time 136.781 s
  RLU: 501.497 RLU
Time 137.547 s
  RLU: 471.412 RLU
Time 143.547 s
  RLU: 482.177 RLU
Time 149.547 s
  RLU: 466.386 RLU
Time 155.547 s
  RLU: 451.788 RLU
Time 161.547 s
  RLU: 449.152 RLU
Time 167.547 s
  RLU: 425.382 RLU
Time 173.547 s
  RLU: 442.283 RLU
Time 179.547 s
  RLU: 425.607 RLU
Time 185.547 s
  RLU: 410.079 RLU
Time 191.547 s
  RLU: 397.165 RLU
Time 197.547 s
  RLU: 392.705 RLU
Time 203.547 s
  RLU: 382.875 RLU
Time 209.547 s
  RLU: 387.748 RLU
Time 215.547 s
  RLU: 381.118 RLU
Time 221.547 s
  RLU: 374.673 RLU
Time 227.547 s
  RLU: 340.738 RLU
Time 233.547 s
  RLU: 357.908 RLU
Time 239.547 s
  RLU: 329.058 RLU
Time 245.547 s
  RLU: 312.353 RLU
Time 293.547 s
  RLU: 280.532 RLU
Time 299.547 s
  RLU: 302.8 RLU
P < 0.01 vs empty vector
  Activation threshold concentration Tas2r108: 1 µM
Time 305.547 s
  RLU: 271.906 RLU
Time 311.547 s
  RLU: 293.129 RLU
Time 317.547 s
  RLU: 296.196 RLU
Time 323.547 s
  RLU: 325.759 RLU
Time 329.547 s
  RLU: 278.402 RLU
Time 335.547 s
  RLU: 309.885 RLU
Time 341.547 s
  RLU: 315.03 RLU
Time 347.547 s
  RLU: 300.184 RLU
Time 353.547 s
  RLU: 294.817 RLU
Time 359.547 s
  RLU: 274.663 RLU
